Like-named read-outs stand apart in the source and are kept apart here.
Columns and labels:
human PDE-5A1 = human PDE-5A1 (Homo sapiens (Human), UniProt O76074); assay: Human PDE-5A1 inhibition assay (fluorescence polarization, FAM-cGMP); assay type: biochemical; conditions: human PDE5A1, 100 nM FAM-cGMP, 60 minutes room temperature
From the text: This example illustrates the in vitro inhibition of human PDE-5A1 by exemplary compounds of this disclosure (e.g., as described herein).
Sildenafil citrate (Catalog no. LKT-S3313, Axxora, San Diego, CA), Vardenafil hydrochloride trihydrate (Catalog no. SML2103, Sigma-Aldrich, St. Louis, MO), PDE Assay Buffer (Catalog no. 60393, BPS bioscience, San Diego, CA), PDE Binding Agent (Catalog no. 60390, BPS bioscience, San Diego, CA) and PDE Binding Agent Diluent (cGMP, Catalog no. 60392, BPS bioscience, San Diego, CA) were used for assays. Test compounds were supplied by Ildong Pharmaceuticals Co., Ltd.
The serial dilution of the compounds was first performed in 100% DMSO with the highest concentration at 1 mM and 0.1 mM. Each intermediate compound dilution (in 100% DMSO) will then get directly diluted 10× fold into assay buffer for 10% DMSO and 5 μL of the dilution was added to a 50 μL reaction so that the final concentration of DMSO is 1% in all reactions.
The enzymatic reactions were conducted at room temperature for 60 minutes in a 50 μL mixture containing PDE assay buffer, 100 nM FAM-cGMP, a PDE enzyme (Table 2) and the test compounds.
After enzymatic reaction, 100 μL of a binding solution (1:100 dilution of the binding agent with the binding agent diluent) was added to each reaction and the reaction was performed at room temperature for 60 minutes.
Fluorescence intensity was measured at excitation of 485 nm and an emission of 528 nm using a Tecan Infinite M1000 microplate reader.
PDE activity assays were performed in duplicate at each concentration. Fluorescence intensity is converted to fluorescence polarization using the Tecan Magellan6 software. The fluorescence polarization (FPt) in absence of the compound in each data set was defined as 100% activity. In the absence of PDE and the compound, the value fluorescent polarization (FPb) in each data set was defined as 0% activity. The percent activity in the presence of compound was calculated according to Equation 1:
[formula] where FP=the fluorescence polarization in the presence of the compound.
The values of % activity versus a series of compound concentrations were then plotted using non-linear regression analysis of Sigmoidal dose-response curve generated with Equation 2:
[formula] where Y=percent activity, B=minimum percent activity, T=maximum percent activity, X=logarithm of compound, and Hill Slope=slope factor or Hill coefficient. The IC50 value was determined by the concentration causing a half-maximal percent activity. Results

androgen receptor (AR) = androgen receptor (AR) (Homo sapiens (Human), UniProt P10275); assay: Androgen receptor (AR) reporter assay, antagonist screen activated by R1881; assay type: cell-based; conditions: AR-UAS-bla GripTite 293 cells, antagonist mode, R1881 at EC80
Chain of androgen receptor (AR) (P10275 other isoform, or with tags, fused parts or gaps): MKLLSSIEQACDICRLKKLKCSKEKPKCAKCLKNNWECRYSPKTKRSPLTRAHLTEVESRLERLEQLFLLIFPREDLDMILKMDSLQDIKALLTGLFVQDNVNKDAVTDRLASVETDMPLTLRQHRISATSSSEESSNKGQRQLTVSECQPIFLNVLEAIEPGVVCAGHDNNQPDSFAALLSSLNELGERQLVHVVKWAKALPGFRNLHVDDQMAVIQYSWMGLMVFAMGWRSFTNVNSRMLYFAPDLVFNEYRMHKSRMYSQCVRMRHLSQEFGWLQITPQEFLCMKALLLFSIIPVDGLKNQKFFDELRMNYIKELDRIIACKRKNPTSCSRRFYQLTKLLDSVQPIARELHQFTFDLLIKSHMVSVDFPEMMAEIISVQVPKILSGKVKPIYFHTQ
Experimental: The protocols and results of this Example were carried out and obtained by Thermofisher Scientific.
Test compounds were received at 1000× (or greater) of the desired starting concentration in 100% DMSO. If compounds were supplied at greater that 1000× concentration, an initial dilution is made in 100% DMSO to bring the compounds to 1000× concentration. The 1000× test compounds were serially diluted (10 point ½-log increments) in 100% DMSO.
The Substrate Loading Solution consists of three Life Technologies reagents: Solution A (10 mM LiveBLAzer™-FRET B/G Substrate), Solution B and Solution C.
Androgen Receptor (AR)—Antagonist Screen, Activated by R1881
AR-UAS-bla GripTite™ 293 cells were thawed and resuspended in Assay Media (DMEM phenol red free, 2% CD-treated FBS, 0.1 mM NEAA, 1 mM Sodium Pyruvate, 100 U/mL/100 μg/mL Pen/Strep) to a concentration of 312,500 cells/mL. 4 μL of a 10× serial dilution of Cyproterone Acetate (control antagonist starting concentration, 3,160 nM) or compounds are added to appropriate wells of a Poly-D-Lysine assay plate. 32 μL of cell suspension was added to the wells and pre-incubated at 37° C./5% CO2 in a humidified incubator with compounds and control antagonist titration for 30 minutes. 4 μL of 10× control agonist R1881 at the pre-determined EC80 concentration was added to wells containing the control antagonist or compounds. The plate was incubated for 16-24 hours at 37° C./5% CO2 in a humidified incubator. 8 μL of 1 μM Substrate Loading Solution is added to each well and the plate was incubated for 2 hours at room temperature. The plate was read on a fluorescence plate reader (Tecan Safire^2).

Human androgen receptors = Human androgen receptors (Homo sapiens (Human), UniProt P10275, T878A); assay: Androgen receptor (AR) radioligand binding assay; conditions: read-out: AR IC50
Chain of Human androgen receptors (P10275 whole entry T878A): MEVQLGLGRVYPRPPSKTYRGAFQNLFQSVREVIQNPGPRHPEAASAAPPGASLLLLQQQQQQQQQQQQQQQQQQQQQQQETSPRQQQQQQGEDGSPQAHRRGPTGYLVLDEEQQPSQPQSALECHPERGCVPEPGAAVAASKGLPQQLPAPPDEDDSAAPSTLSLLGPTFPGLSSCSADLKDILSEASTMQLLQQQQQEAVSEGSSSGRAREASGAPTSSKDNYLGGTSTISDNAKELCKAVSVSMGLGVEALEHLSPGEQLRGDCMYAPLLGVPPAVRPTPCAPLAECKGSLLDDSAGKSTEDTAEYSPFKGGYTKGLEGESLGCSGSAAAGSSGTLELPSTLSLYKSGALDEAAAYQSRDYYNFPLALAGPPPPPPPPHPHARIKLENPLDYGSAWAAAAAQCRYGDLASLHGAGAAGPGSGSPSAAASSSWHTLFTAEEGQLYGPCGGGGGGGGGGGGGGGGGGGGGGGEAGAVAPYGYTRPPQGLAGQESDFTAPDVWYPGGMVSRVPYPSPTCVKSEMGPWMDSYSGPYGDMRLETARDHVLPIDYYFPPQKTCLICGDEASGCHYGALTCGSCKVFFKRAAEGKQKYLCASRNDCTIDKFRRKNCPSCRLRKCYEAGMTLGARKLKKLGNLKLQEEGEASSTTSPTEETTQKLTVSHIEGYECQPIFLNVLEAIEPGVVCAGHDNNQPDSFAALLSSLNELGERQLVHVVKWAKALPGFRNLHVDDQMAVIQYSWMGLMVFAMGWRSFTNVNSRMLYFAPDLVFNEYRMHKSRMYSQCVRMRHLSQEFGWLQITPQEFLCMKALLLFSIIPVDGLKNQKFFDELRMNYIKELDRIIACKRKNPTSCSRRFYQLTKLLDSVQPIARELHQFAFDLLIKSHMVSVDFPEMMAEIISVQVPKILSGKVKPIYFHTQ
Experimental: Methods employed in this study have been adapted from the following literature procedure.
Human androgen receptors obtained from human LNCaP cells are used in modified HEPES buffer pH 7.4. […] Non-specific binding is estimated in the presence of 1 μM testosterone. […] (See, e.g., Traish, A. M et al., Binding of 7α, 17α-dimethyl-19-nortestosterone (Mibolerone) to androgen and progesterone receptors in human and animal tissues. Endocrinology. 118(4): 1327-1333, 1986).
Compounds are screened at 10 μM.
Where presented, IC50 values were determined by a non-linear, least squares regression analysis using MathIQ™ (ID Business Solutions Ltd., UK).

| Structure (SMILES) | IC50 (human PDE-5A1) [nM] | other results |
| --- | --- | --- |
| CCCc1nn(C)c2c(=O)[nH]c(-c3cc(S(=O)(=O)Nc4ccc(C#N)c(C(F)(F)F)c4)ccc3OCC)nc12 [Compound 1, N-(4-cyano-3-(trifluoromethyl)phenyl)-4-ethoxy-3-(1-methyl-7-oxo-3-propyl-6,7-dihydro-1H-pyrazolo[4,3-d]pyrimidin-5-yl)benzenesulfonamide] | ≤ 10 | – |
| CCCc1nn(C)c2c(=O)[nH]c(-c3cc(SC[C@](C)(O)C(=O)Nc4ccc(C#N)c(C(F)(F)F)c4)ccc3OCC)nc12 [Compound 2, (R)-N-(4-cyano-3-(trifluoromethyl)phenyl)-3-((4-ethoxy-3-(1-methyl-7-oxo-3-propyl-6,7-dihydro-1H-pyrazolo[4,3-d]pyrimidin-5-yl)phenyl)thio)-2-hydroxy-2-methylpropanamide] | 10 to 100 | – |
| CCCc1nn(C)c2c(=O)[nH]c(-c3cc(S(=O)(=O)C[C@](C)(O)C(=O)Nc4ccc(C#N)c(C(F)(F)F)c4)ccc3OCC)nc12 [Compound 3, (R)-N-(4-cyano-3-(trifluoromethyl)phenyl)-3-((4-ethoxy-3-(1-methyl-7-oxo-3-propyl-6,7-dihydro-1H-pyrazolo[4,3-d]pyrimidin-5-yl)phenyl)sulfonyl)-2-hydroxy-2-methylpropanamide] | 10 to 100 | – |
| CCCc1nn(C)c2c(=O)[nH]c(-c3cc(S(=O)(=O)NC[C@@](C)(O)C(=O)Nc4ccc(C#N)c(C(F)(F)F)c4)ccc3OCC)nc12 [Compound 4, (R)-N-(4-cyano-3-(trifluoromethyl)phenyl)-3-((4-ethoxy-3-(1-methyl-7-oxo-3-propyl-6,7-dihydro-1H-pyrazolo[4,3-d]pyrimidin-5-yl)phenyl)sulfonamido)-2-hydroxy-2-methylpropanamide] | 10 to 100 | – |
| CCCc1nn(C)c2c(=O)[nH]c(-c3cc(S(=O)(=O)Nc4cnc(C#N)c(C(F)(F)F)c4)ccc3OCC)nc12 [Compound 5, N-(6-cyano-5-(trifluoromethyl)pyridin-3-yl)-4-ethoxy-3-(1-methyl-7-oxo-3-propyl-6,7-dihydro-1H-pyrazolo[4,3-d]pyrimidin-5-yl)benzenesulfonamide] | ≤ 10 | – |
| CCCc1nc(C)c2c(=O)[nH]c(-c3cc(S(=O)(=O)Nc4cnc(C#N)c(C(F)(F)F)c4)ccc3OCC)nn12 [Compound 6, N-(6-cyano-5-(trifluoromethyl)pyridin-3-yl)-4-ethoxy-3-(5-methyl-4-oxo-7-propyl-3,4-dihydroimidazo[5,1-f][1,2,4]triazin-2-yl)benzenesulfonamide] | ≤ 10 | – |
| CCCc1nc(C)c2c(=O)[nH]c(-c3cc(S(=O)(=O)Nc4ccc(C#N)c(C(F)(F)F)c4)ccc3OCC)nn12 [Compound 7, N-(4-cyano-3-(trifluoromethyl)phenyl)-4-ethoxy-3-(5-methyl-4-oxo-7-propyl-3,4-dihydroimidazo[5,1-f][1,2,4]triazin-2-yl)benzenesulfonamide] | ≤ 10 | – |
| CCCc1nn(C)c2c(=O)[nH]c(-c3cc(S(=O)(=O)Nc4ccc(C#N)c(Cl)c4)ccc3OCC)nc12 [Compound 8, N-(3-chloro-4-cyanophenyl)-4-ethoxy-3-(1-methyl-7-oxo-3-propyl-6,7-dihydro-1H-pyrazolo[4,3-d]pyrimidin-5-yl)benzenesulfonamide] | ≤ 10 | – |
| CCCc1nc(C)c2c(=O)[nH]c(-c3cc(S(=O)(=O)Nc4ccc(C#N)c(Cl)c4)ccc3OCC)nn12 [Compound 9, N-(3-chloro-4-cyanophenyl)-4-ethoxy-3-(5-methyl-4-oxo-7-propyl-3,4-dihydroimidazo[5,1-f][1,2,4]triazin-2-yl)benzenesulfonamide] | ≤ 10 | – |
| CCCc1nc(C)c2c(=O)[nH]c(-c3cc(S(=O)(=O)N[C@H]4C[C@H](C(O)C(F)(F)F)N(c5ccc(C#N)c(C(F)(F)F)c5)C4)ccc3OCC)nn12 (stereo partly drawn) [Compound 10, N-((3S,5R)-1-(4-cyano-3-(trifluoromethyl)phenyl)-5-(2,2,2-trifluoro-1-hydroxyethyl)pyrrolidin-3-yl)-4-ethoxy-3-(5-methyl-4-oxo-7-propyl-3,4-dihydroimidazo[5,1-f][1,2,4]triazin-2-yl)benzenesulfonamide] | ≤ 10 | – |
| CCCc1nn(C)c2c(=O)[nH]c(-c3cc(S(=O)(=O)N[C@@H](C)Cn4ccc(-c5ccc(C#N)c(Cl)c5)n4)ccc3OCC)nc12 [Compound 11, (S)-N-(1-(3-(3-chloro-4-cyanophenyl)-1H-pyrazol-1-yl)propan-2-yl)-4-ethoxy-3-(1-methyl-7-oxo-3-propyl-6,7-dihydro-1H-pyrazolo[4,3-d]pyrimidin-5-yl)benzenesulfonamide] | > 100 | – |
| CCCc1nn(C)c2c(=O)[nH]c(-c3cc(N4C(=S)N(c5ccc(C#N)c(C(F)(F)F)c5)C(=O)C4(C)C)ccc3OCC)nc12 [Compound 13, 4-(3-(4-ethoxy-3-(1-methyl-7-oxo-3-propyl-6,7-dihydro-1H-pyrazolo[4,3-d]pyrimidin-5-yl)phenyl)-4,4-dimethyl-5-oxo-2-thioxoimidazolidin-1-yl)-2-(Influoromethyl)benzonilrile] | > 100 | IC50 (androgen receptor (AR)): 500 to 1000 nM; IC50 (Human androgen receptors; receptors from human LNCaP cells, 0.5 nM [3H]Methyltrienolone, 20 hours at 4° C.): > 200 nM |
| CCCc1nc(C)c2c(=O)[nH]c(-c3cc(N4C(=S)N(c5cnc(C#N)c(C(F)(F)F)c5)C(=O)C45CCC5)ccc3OCC)nn12 [Compound 24, 5-(5-(4-ethoxy-3-(5-methyl-4-oxo-7-propyl-3,4-dihydroimidazo[5,1-f][1,2,4]triazin-2-yl)phenyl)-8-oxo-6-thioxo-5,7-diazaspiro[3.4]octan-7-yl)-3-(trifluoromethyl)picolinonitrile] | ≤ 10 | IC50 (Human androgen receptors): 50 to 200 nM |
| CCCc1nc(C)c2c(=O)[nH]c(-c3cc(N4CC(=O)N(c5ccc(C#N)c(C(F)(F)F)c5)C4=S)ccc3OCC)nn12 [Compound 25, 4-(3-(4-ethoxy-3-(5-methyl-4-oxo-7-propyl-3,4-dihydroimidazo[5,1-f][1,2,4]triazin-2-yl)phenyl)-5-oxo-2-thioxoimidazolidin-1-yl)-2-(trifluoromethyl)benzonitrile] | ≤ 10 | IC50 (androgen receptor (AR)): > 100 nM |
| CCCc1nc(C)c2c(=O)[nH]c(-c3cc(NC(=O)Nc4ccc(C#N)c(C(F)(F)F)c4)ccc3OCC)nn12 [Compound 27, 1-(4-cyano-3-(trifluoromethyl)phenyl)-3-(4-ethoxy-3-(5-methyl-4-oxo-7-propyl-3,4-dihydroimidazo[5,1-f][1,2,4]triazin-2-yl)phenyl)urea] | ≤ 10 | IC50 (androgen receptor (AR)): > 100 nM |
| CCCc1nc(C)c2c(=O)[nH]c(-c3cc(NC(=S)Nc4ccc(C#N)c(C(F)(F)F)c4)ccc3OCC)nn12 [Compound 28, 1-(4-cyano-3-(trifluoromethyl)phenyl)-3-(4-ethoxy-3-(5-methyl-4-oxo-7-propyl-3,4-dihydroimidazo [5,1-f][1,2,4]triazin-2-yl)phenyl)thiourea] | ≤ 10 | IC50 (androgen receptor (AR)): > 100 nM |

— US11787812B2, “Substituted pyrazolo[4,3-d]pyrimidines and imidazo[5,1 -f][1,2,4]triazines as androgen receptor and phosphodiesterase dual inhibitors” (ILDONG PHARMACEUTICAL CO., LTD., priority 2020, dated 2023)
